Results on 6 substances are retold here after patent US7795215B2, “MNTF peptides and compositions and methods of use” (Genervon Biopharmaceuticals LLC, priority 2003, dated 2010).

Entries after “also recorded” stand apart in the source; their conditions may differ. Where no end group is shown, it is not given here.

The subject of the test is VSC4.1 cells, a motor neuron/neuroblastoma cell hybrid. The test can be described thus: VSC4.1 cell proliferation assay (BrdU). Type of test: cell-based. To be noted: for Biological Function / OD (optimal dose): VSC4.1 proliferation; for stimulation of VSC4.1 cell proliferation over controls: second round of experiments; for maximal increase in cell proliferation: % increase over control. As for the experimental part:
Studies of proliferation were performed in 96 well plates utilizing a cell proliferation assay kit from Roche Diagnostics GmbH (Mannheim, Germany). VSC4.1 cells, a motor neuron/neuroblastoma cell hybrid, were cultured in DMEM with 2% FBS containing either no MNTF or a dose range of MNTF from 10^−8 to 10^−5 g/ml. Each treatment was applied in triplicate wells. The cells were cultured for 21 hours and 5-bromo-2′-deoxyuridine (BrdU) from the assay kit was added to each well. After BrdU labeling for 3 hours, the cells were washed, fixed and dried. The cells were then fixed and the DNA denatured to improve access for the subsequent antibody binding. POD-labeled mouse monoclonal anti-BrdU antibody from the assay kit was applied for 2 hours, followed by a wash. The assay was quantitated by adding the colorimetric assay solution (tetramethyl benzidine) and reading at 450 nm on a Wallac Vector 2 plate reader. Cells in the treatment groups were quantitated by comparing to wells plated with a gradient of cells from 0 to 20,000 cells/well on the same plate. Data is expressed as % of control to allow for variability from plate to plate.
Additional cell proliferation assays, conducted essentially as described above, were performed to compare the effects of several GLP grade MNTF peptides.
Further cell proliferation studies were performed, essentially as described above, to test the response of the motor neuron/neuroblastoma cells to three new preparations of MNTF. The MNTF preparations utilized for these assays were: […]

In the case of CWMLSAFSRYARC [13mer], the “stimulation of VSC4.1 cell proliferation over controls” value was at least 250%. Further, for the setting “assay set Mar. 28, 2003”, the “Biological Function” value is recorded as “Effective” and the “OD (optimal dose)” value came out at 0.1 µg/mL. Also, the “effect on proliferation of motor neuron/neuroblastoma cells (summary in description)” value (in vitro) is given as “sufficient to increase cell proliferation of motor neuron/neuroblastoma cells”. For the setting “second set, FIG. 3”, the “relative effectiveness in proliferation assay (words)” value (“relative effectiveness” below) is on record as “some efficacy at the lowest dose, this effect fell off at higher doses”.

With “Cyclized MNTF 33mer: cyclized version of the MNTF1 33-mer, SEQ ID NO:1, research grade (LGTFWGDTLNCWMLSAFSRYARCLAEGHDGPTQ; also: cyclized)”, for the setting “assay set Oct. 27, 2002”, the “Biological Function” value is reported as “Limited Efficacy”. Moreover, where the note is “earliest studies, FIG. 2”, the “dose of maximal response” value came out at 0.1 µg/mL, the “relative effectiveness” value is recorded as “limited efficacy” and the “maximal increase in cell proliferation” value was 12.9%. The “relative effectiveness” value (earliest studies, FIG. 2, listed as cyclized MNTF 33mer) is recorded as “very weak proliferative activity at low doses”. Under “in vitro”, the “effect on proliferation of motor neuron/neuroblastoma cells (summary in description)” value was “less effective”.

With FSRYARCLAEG [11mer], where the note is “assay set Mar. 28, 2003”, the “Biological Function” value is listed as “Effective” and the “OD (optimal dose)” value was 1 µg/mL. In addition, where the note is “assay set Oct. 27, 2002”, the “Biological Function” value is recorded as “Effective” and the “OD (optimal dose)” value is 10 µg/mL. Besides, for the setting “earliest studies, FIG. 2”, the “dose of maximal response” value is 10 µg/mL, the “relative effectiveness” value is “comparably effective” and the “maximal increase in cell proliferation” value worked out at 32.2%. The “effect on proliferation of motor neuron/neuroblastoma cells (summary in description)” value (in vitro) was “sufficient to increase cell proliferation of motor neuron/neuroblastoma cells”. For the setting “second set, FIG. 3”, the “relative effectiveness” value was “poorest performers; also recorded: less effectively than the others”. Also, the “fold increase in proliferation” value (second set, FIG. 3, at 1 μg/ml) is about 2.5 fold.

As to MLSAFSRYAR [10mer], under “assay set Aug. 4, 2003”, the “Biological Function” value was “Effective” and the “OD (optimal dose)” value was determined as 0.01 µg/mL. Also, under “in vitro”, the “effect on proliferation of motor neuron/neuroblastoma cells (summary in description)” value is listed as “at least as effective the full-length MNTF 33mer” and the “lowest concentration at which at least as effective as MNTF 33mer” value was determined as 0.01 µg/mL. Moreover, for the setting “third set, FIG. 4”, the “relative effectiveness” value is recorded as “significantly (p<0.05) stimulated proliferation over control; also recorded: most active proliferative agent; also recorded: clearly superior to the 21mer”. For the same substance, the “increase in proliferation over controls” value (third set, FIG. 4, three lowest doses used) is on record as about 200%.

As for MLSAFSRYARCLAEGHDGPTQ [21mer], under “assay set Aug. 4, 2003”, the “Biological Function” value is given as “Effective” and the “OD (optimal dose)” value was found to be 0.1 µg/mL. The “effect on proliferation of motor neuron/neuroblastoma cells (summary in description)” value (in vitro) is given as “sufficient to increase cell proliferation of motor neuron/neuroblastoma cells”. Further, the “relative effectiveness” value (third set, FIG. 4) is recorded as “significantly (p<0.05) stimulated proliferation over control; also recorded: about half that of the other two MNTF isoforms”.

WMLSAFS [7mer]: the “stimulation of VSC4.1 cell proliferation over controls” value is 350%. Also, for the setting “assay set Mar. 28, 2003”, the “Biological Function” value is given as “Effective” and the “OD (optimal dose)” value came out at 100 µg/mL. Moreover, for the setting “assay set Oct. 27, 2002”, the “Biological Function” value is recorded as “Effective” and the “OD (optimal dose)” value was determined as 1 µg/mL. In addition, for the setting “earliest studies, FIG. 2”, the “dose of maximal response” value was 1 µg/mL, the “relative effectiveness” value is given as “markedly less effective” and the “maximal increase in cell proliferation” value worked out at 25.1%. The “relative effectiveness” value (earliest studies, FIG. 2, listed as MNTF 7mer) is given as “broader active dose range than the other preparations”. In addition, the “effect on proliferation of motor neuron/neuroblastoma cells (summary in description)” value (in vitro) is given as “potent stimulator of motor neuron/neuroblastoma cells in vitro over a broad range of dosage levels”. The “relative effectiveness” value (second set, FIG. 3) is reported as “most potent preparation across the whole dose range; also recorded: most active proliferative agent”. Also, the “fold increase in proliferation” value (second set, FIG. 3, highest dose) was about 3.5 fold. For the same substance, where the note is “second set, FIG. 3, lowest dose applied”, the “fold increase in proliferation” value is listed as 2.5 fold.
